The record followed here is PubChem BioAssay (NCI).

Among the test systems are T-47D breast; MDA-MB-435; PC-3 prostate; BT-549 breast; MDA-MB-231 breast.
What all share (assay): growth of human tumour cells (NCI), 48 h

Values joined by “and” are separate entries in the source; they are usually repeats but may differ in a detail not shown here. Equal entries are not always repeated.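 The compound was tested at five concentrations on cells cultured in 96-well plates, with a 48-hour exposure period. The concentration for 50% growth inhibition is given as GI50. TGI is the concentration that stops growth completely.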

With `COc1cccc2c(=O)c3c(sc12)c(NCCN(C)C)nc1ccccc13`, the GI50 in the assay with T-47D breast was 1650 nM; in the assay on MDA-MB-435 it was 1710 nM; with PC-3 prostate, 1340 nM; with BT-549 breast it was 2310 nM; in the assay with MDA-MB-231 breast, 1340 nM. For the same compound, the TGI was 3.98 µM in the assay on T-47D breast; 3.2 µM in the assay with MDA-MB-435; 3.03 µM in the assay with PC-3 prostate; 10.1 µM in the assay on BT-549 breast; 2.87 µM in the assay on MDA-MB-231 breast.

On to `Oc1ccc(N=Nc2ccc(N=Nc3ccccc3)cc2)cc1`, for which the GI50 in the assay with T-47D breast was 1610 nM; in the assay on MDA-MB-435 it was 2960 nM; in the assay with PC-3 prostate, 2830 nM; in the assay on BT-549 breast it was 899 nM; in the assay with MDA-MB-231 breast it was 2500 nM. The TGI with T-47D breast came out at 6.73 µM; in the assay on MDA-MB-435 it was 14.7 µM; in the assay with PC-3 prostate, 16.8 µM; with BT-549 breast it was 9.06 µM; in the assay on MDA-MB-231 breast it was 7.09 µM.

Take `CN1CCn2c(c(Sc3ccc(C(=O)NO)cc3)c3ccccc32)C1=O`: the GI50 with T-47D breast is 1530 nM; in the assay on PC-3 prostate it was 1960 nM; with BT-549 breast it was 1920 nM; with MDA-MB-231 breast, 2130 nM. In addition, the TGI in the assay with T-47D breast worked out at 3.91 µM; in the assay with PC-3 prostate, 4.57 µM; in the assay on BT-549 breast, 4.3 µM; in the assay with MDA-MB-231 breast it was 5.09 µM.

As for `C=C1C(=O)O[C@H]2[C@H]1CC/C(CNS(=O)(=O)c1cccc3ccccc13)=C\CC[C@@]1(C)O[C@@H]21`, the GI50 in the assay on T-47D breast was 1960 nM; in the assay with MDA-MB-435 it was 1600 nM; in the assay with PC-3 prostate, 1910 nM; with BT-549 breast, 1560 nM; in the assay on MDA-MB-231 breast it was 1530 nM. The TGI is 6.51 µM with T-47D breast; 3.42 µM in the assay on MDA-MB-435; 4.51 µM in the assay with PC-3 prostate; 3.1 µM with BT-549 breast; 3.4 µM in the assay on MDA-MB-231 breast.

In the case of `CCOC(=O)C#Cc1c(CC(=O)OCC)nnn1[C@H]1O[C@@H](CO)[C@@H]2OC(C)(C)O[C@@H]21`, the GI50 in the assay with T-47D breast was 2780 nM; in the assay with MDA-MB-435 it was 5400 nM; in the assay on PC-3 prostate it was 16100 nM; with BT-549 breast it was 9100 nM; with MDA-MB-231 breast it was 4620 nM. The TGI in the assay on T-47D breast came out at 7.55 µM; in the assay with MDA-MB-435, 18.3 µM; in the assay with PC-3 prostate, 31 µM; in the assay with BT-549 breast it was 21.2 µM; in the assay with MDA-MB-231 breast, 16.1 µM.

In the case of `CN(C)CCNC(=O)c1cc2c3ccccc3[nH]c2c2ncccc12`, the GI50 was 18400 nM in the assay on T-47D breast; 2890 nM with MDA-MB-435; 9140 nM with PC-3 prostate; 6360 nM in the assay with BT-549 breast; 5250 nM in the assay with MDA-MB-231 breast. In addition, the TGI was over 100 µM in the assay with T-47D breast; 15.4 µM in the assay with MDA-MB-435; 34.2 µM in the assay with PC-3 prostate; 20.7 µM in the assay on BT-549 breast; 26.8 µM with MDA-MB-231 breast.

On to `O=C(N/N=C\c1ccc(N(CCCl)CCCl)cc1Cl)c1cccnc1`, for which the GI50 in the assay with T-47D breast was 2800 nM; in the assay on MDA-MB-435, 17100 nM; with PC-3 prostate, 19200 nM; in the assay on BT-549 breast, 22700 nM; in the assay on MDA-MB-231 breast, 14100 nM. Further, the TGI in the assay with T-47D breast is 20 µM; with MDA-MB-435, 46.1 µM; in the assay with PC-3 prostate it was over 100 µM; with BT-549 breast, over 76 µM; in the assay on MDA-MB-231 breast, 62.3 µM.

On to `COCCNC(=O)c1ccc(-c2nc3ccc4[nH]ncc4c3c3c2CCCC3)cc1`, for which the GI50 in the assay with T-47D breast was 1970 nM; in the assay with MDA-MB-435, 2830 nM; in the assay with PC-3 prostate, 2960 nM; in the assay with BT-549 breast it was 1220 nM; in the assay on MDA-MB-231 breast, 2150 nM. For the same compound, the TGI with T-47D breast was 16.3 µM; with MDA-MB-435, over 100 µM; with PC-3 prostate, over 100 µM; in the assay on BT-549 breast it was 9.34 µM; in the assay with MDA-MB-231 breast it was 73 µM.

Consider `CCCCCN(CCCCC)CC(O)c1cc2c(c3ccccc13)CCCC2` (centres undefined), for which the GI50 in the assay on T-47D breast was 3040 nM and 7770 nM; with MDA-MB-435, 7680 nM and 13200 nM; with PC-3 prostate it was 5140 nM and 5620 nM; in the assay on BT-549 breast, 12400 nM and 13800 nM; in the assay on MDA-MB-231 breast, 3010 nM and 7040 nM. Besides, the TGI was 14.2 µM and 25.7 µM with T-47D breast; 21.9 µM and 36.5 µM in the assay with MDA-MB-435; 21.6 µM and 20.9 µM in the assay on PC-3 prostate; 25.5 µM and 29.8 µM with BT-549 breast; 10.5 µM and 21.4 µM in the assay on MDA-MB-231 breast.

As to `N#Cc1nc2cc(F)c(F)cc2nc1-c1ccc(Cl)cc1`, the GI50 was 20900 nM in the assay on T-47D breast, 17500 nM with MDA-MB-435, 4270 nM with PC-3 prostate and 19800 nM in the assay with BT-549 breast. Further, the TGI with T-47D breast was over 62.1 µM; with MDA-MB-435, 39.1 µM; in the assay on PC-3 prostate, 20.2 µM; in the assay on BT-549 breast, 40.3 µM; in the assay on MDA-MB-231 breast, 5.3 µM.

As for `N#C[S-].[Au+].c1ccc(CN2[CH-]N(Cc3ccccc3)C(c3ccccc3)=C2c2ccccc2)cc1`, in the assay on MDA-MB-435, the GI50 was 492 nM and the TGI came out at 1.74 µM. In the assay with BT-549 breast, the GI50 was 470 nM and the TGI amounted to 1.88 µM.

Regarding `O=C(CCCCCCC(=O)Nc1ccc2c(c1)/C(=C/c1ccc[nH]1)C(=O)N2)NO`, the GI50 was 332 nM with MDA-MB-435, 851 nM in the assay on PC-3 prostate, 1870 nM in the assay on BT-549 breast and 991 nM in the assay with MDA-MB-231 breast. Further, the TGI was 4.57 µM with MDA-MB-435, over 100 µM in the assay on PC-3 prostate, 22 µM in the assay with BT-549 breast and 10 µM with MDA-MB-231 breast.

On to `S=C(Nc1ccccc1)N(Cc1ccccc1)c1ccccc1`, for which the TGI in the assay on T-47D breast is over 100 µM; with MDA-MB-435, 49.5 µM; in the assay on BT-549 breast, 4.97 µM; in the assay with MDA-MB-231 breast, over 100 µM.

Take `COc1cc([N+](=O)[O-])c(OC)cc1-c1nc2sc(Cl)cn2c1/C=N/NC(=N)N/N=C/c1c(-c2cc(OC)c([N+](=O)[O-])cc2OC)nc2sc(Cl)cn12`: the GI50 in the assay on T-47D breast was 1980 nM; in the assay on PC-3 prostate, 1970 nM; with MDA-MB-231 breast, 1590 nM. The figures for the TGI in the assay on T-47D breast, in the assay with PC-3 prostate and in the assay on MDA-MB-231 breast were 5.07 µM, 3.47 µM and 3.4 µM, respectively.
